Experimental data from the supplement of paper PMC10307832.

Experiments:
Assay in all cases: relative viability (nuclei count vs DMSO), 5 days (fraction); higher = more cells survive
[1] = test system: 201T
How it was run: (§1)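 Dosing by pin tool came one day after lung cancer cell lines were seeded in 1536-well plates, using either one drug or a fixed anchor-drug dose plus five library-drug doses (not always all listed) in √10 steps. After 5 days, nuclei were counted on 4× images. Relative viability is treated-well nuclei count divided by vehicle-well nuclei count, and values are medians of duplicate plates.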

[2] = test system: BEN
How it was run: as §1

[3] = test system: CAL-12T
How it was run: as §1

[4] = test system: HCC-44
How it was run: as §1

[5] = test system: HCC-827
How it was run: as §1

[6] = test system: HOP-62
How it was run: as §1

[7] = test system: LCLC-103H
How it was run: as §1

[8] = test system: LCLC-97TM1
How it was run: as §1

[9] = test system: LXF-289
How it was run: as §1

[10] = test system: NCI-H1355
How it was run: as §1

[11] = test system: NCI-H1395
How it was run: as §1

[12] = test system: NCI-H1437
How it was run: as §1

## Clc1ccc(Nc2nnc(Cc3ccncc3)c3ccccc23)cc1 [Vatalanib] + CCNC(=O)c1noc(-c2cc(C(C)C)c(O)cc2O)c1-c1ccc(CN2CCOCC2)cc1 [Luminespib] (partner 0.01 µM)
[1]; first compound 0.04 µM
  relative viability: 1.07
[1]; first compound 0.1265 µM
  relative viability: 1.05
[1]; first compound 0.4 µM
  relative viability: 1.13
[1]; first compound 1.265 µM
  relative viability: 1.04
[1]; first compound 4 µM
  relative viability: 1.13
[2]; first compound 0.04 µM
  relative viability: 0.218
[2]; first compound 0.1265 µM
  relative viability: 0.265
[2]; first compound 0.4 µM
  relative viability: 0.514
[2]; first compound 1.265 µM
  relative viability: 0.399
[2]; first compound 4 µM
  relative viability: 0.404
[3]; first compound 0.04 µM
  relative viability: 0.722
[3]; first compound 0.1265 µM
  relative viability: 0.406
[3]; first compound 0.4 µM
  relative viability: 0.502
[3]; first compound 1.265 µM
  relative viability: 0.255
[3]; first compound 4 µM
  relative viability: 0.513
[4]; first compound 0.04 µM
  relative viability: 1.24
[4]; first compound 0.1265 µM
  relative viability: 1.01
[4]; first compound 0.4 µM
  relative viability: 0.953
[4]; first compound 1.265 µM
  relative viability: 0.927
[4]; first compound 4 µM
  relative viability: 1.05
[5]; first compound 0.04 µM
  relative viability: 0.53
[5]; first compound 0.1265 µM
  relative viability: 0.614
[5]; first compound 0.4 µM
  relative viability: 0.494
[5]; first compound 1.265 µM
  relative viability: 0.638
[5]; first compound 4 µM
  relative viability: 0.611
[6]; first compound 0.04 µM
  relative viability: 0.928
[6]; first compound 0.1265 µM
  relative viability: 0.925
[6]; first compound 0.4 µM
  relative viability: 0.895
[6]; first compound 1.265 µM
  relative viability: 0.883
[6]; first compound 4 µM
  relative viability: 0.959
[7]; first compound 0.04 µM
  relative viability: 0.961
[7]; first compound 0.1265 µM
  relative viability: 0.878
[7]; first compound 0.4 µM
  relative viability: 0.967
[7]; first compound 1.265 µM
  relative viability: 0.969
[7]; first compound 4 µM
  relative viability: 1
[8]; first compound 0.04 µM
  relative viability: 0.715
[8]; first compound 0.1265 µM
  relative viability: 0.808
[8]; first compound 0.4 µM
  relative viability: 0.741
[8]; first compound 1.265 µM
  relative viability: 0.725
[8]; first compound 4 µM
  relative viability: 0.951
[9]; first compound 0.04 µM
  relative viability: 0.703
[9]; first compound 0.1265 µM
  relative viability: 0.634
[9]; first compound 0.4 µM
  relative viability: 0.734
[9]; first compound 1.265 µM
  relative viability: 0.623
[9]; first compound 4 µM
  relative viability: 0.633
[10]; first compound 0.04 µM
  relative viability: 0.74
[10]; first compound 0.1265 µM
  relative viability: 0.675
[10]; first compound 0.4 µM
  relative viability: 0.748
[10]; first compound 1.265 µM
  relative viability: 0.656
[10]; first compound 4 µM
  relative viability: 0.738
[11]; first compound 0.04 µM
  relative viability: 0.668
[11]; first compound 0.1265 µM
  relative viability: 0.65
[11]; first compound 0.4 µM
  relative viability: 0.834
[11]; first compound 1.265 µM
  relative viability: 0.66
[11]; first compound 4 µM
  relative viability: 0.674
[12]; first compound 0.04 µM
  relative viability: 1.21
[12]; first compound 0.1265 µM
  relative viability: 1.19
[12]; first compound 0.4 µM
  relative viability: 1.13
[12]; first compound 1.265 µM
  relative viability: 1.12
